Laboratory results: patent publication US6642434B1, “Transgenic plants with γ-tocopherol methyltransferase” (University of Community College System of Nevada, priority 1997, dated 2003)

How the values were obtained:
[1] = target: T1, Arabidopsis γ-tocopherol methyltransferase (165H5T7) (Arabidopsis thaliana, UniProt Q9ZSK1); experiment: γ-TMT assay with Arabidopsis 165H5T7 protein expressed in E. coli; format: biochemical; conditions: for use as substrate (methylation) by Arabidopsis γ-TMT: 5 mM substrate, pH 8.5, 14C-methyl-SAM, 30 minutes room temperature
T1 construct: made in house; host or cells: E. coli BL21(DE3), pET3D vector; Triton X-100 supernatant of the lysate
T1 sequence (Q9ZSK1 51-348): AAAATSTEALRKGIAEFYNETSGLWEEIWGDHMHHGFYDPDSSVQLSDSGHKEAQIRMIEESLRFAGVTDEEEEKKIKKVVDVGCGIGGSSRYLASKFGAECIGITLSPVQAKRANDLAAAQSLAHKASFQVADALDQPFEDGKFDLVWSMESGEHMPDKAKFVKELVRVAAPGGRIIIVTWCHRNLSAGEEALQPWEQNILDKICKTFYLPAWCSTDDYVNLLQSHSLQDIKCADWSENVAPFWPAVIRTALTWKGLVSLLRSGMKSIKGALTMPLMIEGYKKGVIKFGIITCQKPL
Description: (§1) The p011698-1 and p011898-1 constructs were used to transform the E. coli T7 expression host BL21(DE3). To generate protein for γ-TMT assays, one liter cultures of transformed host cells containing one of the constructs were grown in Luria broth containing 100 mg/liter ampicillin. Each culture was started at an optical density at 600 nm (OD600) of 0.1 and incubated in a shaking incubator at 28° C. until the culture reached an OD600 of 0.6, at which time isopropyl-, β-D-thiogalactopyranoside (IPTG) was added to each culture to obtain a final concentration of 0.4 mM IPTG. Each culture was incubated for an additional 3 hours at 28° C. and the cells were harvested by centrifugation at 8,000 g. The cell pellets were then resupended in 10 ml of 10 mM HEPES (pH 7.8), 5 mM DTT, 0.24 M sorbitol, 1 mM PMSF. The cells were lysed by sonication with a micro-tip sonicator using four 10-second pulses. Triton×100 was added to each homogenate to a final concentration of 1%. The homogenates were incubated on ice for 30 minutes, and subjected to centrifugation at 30,000 g for 30 minutes at 4° C. The supernatants of these extracts were assayed for γ-tocopherol methyltransferase activity as follows.
(§2) The γ-TMT assays were performed in 250 μl volumes containing 50 mM Tris (pH 7.5 for the Synechocystis and pH 8.5 for the Arabidopsis enzyme), 5 mM DTT, 5 mM γ- or δ-tocopherol, and 0.025 μCi (55 μCi/mmole) (^14C-methyl)-S-adenosylmethionine. Reaction mixtures were incubated at room temperature for 30 minutes. The reactions were stopped by adding of 1 ml of 2:1 (v:v) CHCl3: methanol containing 1 mg/ml butylated hydroxytolulene (BHT) and 250 μl of 0.9% NaCl in water, and vortexing. The samples were centrifuged to separate the phases. The CHCl3 (lower) phase was transferred to a fresh tube containing […] of α-tocopherol and the CHCl3 was then removed under vacuum in a speed-vac. The dried lipid fraction was resuspended in 50 μl ethyl acetate containing 1 mg/ml BHT. The lipid extracts were fractionated on silica 60 TLC plates in dichloromethane. Tocopherols were then identified by co-migration with authentic tocopherol standards after staining the plate with Emmerie-Engels solution (0.1% FeCl3, 0.25% 2,2′-dipyridyl in ethanol). The band corresponding to α-tocopherol was scraped from the TLC plate and the amount of radioactive material present was determined by scintillation counting.
(§3) The Synechocystis and Arabidopsis γ-tocopherol methyltransferases were tested for activity using several different methyl-substituted tocopherol substrates. […] The two enzymes were unable to use tocol, 5,7-diemethyltocol, β-tocopherol, and γ-tocotrienol as substrates. […] The Synechocystis and Arabidopsis γ-TMTs appear to require substrates with a methyl-group present on the 8 position of the chromanol ring and a fully saturated prenyl-tail for activity.

[2] = system: Synechocystis γ-tocopherol methyltransferase (SLR0089); experiment: γ-TMT assay with Synechocystis SLR0089 protein expressed in E. coli; format: biochemical, Synechocystis PCC6803; conditions: for use as substrate (methylation) by Synechocystis γ-TMT: 5 mM substrate, pH 7.5, 14C-methyl-SAM, 30 minutes room temperature
Description: as §1, §2, §3

| SMILES | use as substrate (methylation) by Arabidopsis γ-TMT [1] | use as substrate (methylation) by Synechocystis γ-TMT [2] | relative activity of Arabidopsis γ-TMT toward γ- and δ-tocopherol [1] | relative activity of Synechocystis γ-TMT toward γ- and δ-tocopherol [2] |
| --- | --- | --- | --- | --- |
| Cc1cc2c(c(C)c1O)CCC(C)(CCCC(C)CCCC(C)CCCC(C)C)O2 (stereo not shown) [5,7-diemethyltocol] | unable to use | unable to use |  |  |
| CC(C)=CCC/C(C)=C/CC/C(C)=C/CC[C@]1(C)CCc2cc(O)c(C)c(C)c2O1 [γ-tocotrienol] | unable to use | unable to use |  |  |
| Cc1c(O)cc2c(c1C)O[C@](C)(CCC[C@H](C)CCC[C@H](C)CCCC(C)C)CC2 [γ-tocopherol] | able to convert γ-tocopherol to α-tocopherol | able to convert γ-tocopherol to α-tocopherol | greater activity with γ-tocopherol as the substrate than with the δ-tocopherol substrate | equally active toward γ-tocopherol and δ-tocopherol |
| CC(C)CCCC(C)CCCC(C)CCCC1(C)CCc2cc(O)ccc2O1 (stereo not shown) [tocol] | unable to use | unable to use |  |  |
| Cc1cc(O)c(C)c2c1O[C@](C)(CCC[C@H](C)CCC[C@H](C)CCCC(C)C)CC2 [β-tocopherol] | unable to use | unable to use |  |  |
| Cc1cc(O)cc2c1O[C@](C)(CCC[C@H](C)CCC[C@H](C)CCCC(C)C)CC2 [δ-tocopherol] | able to specifically convert δ-tocopherol to β-tocopherol | able to specifically convert δ-tocopherol to β-tocopherol | greater activity with γ-tocopherol as the substrate than with the δ-tocopherol substrate | equally active toward γ-tocopherol and δ-tocopherol |
